How the values were obtained:
Assay in all cases: relative viability (nuclei count vs DMSO), 5 days (fraction); higher = more cells survive
[1] = compound: CN1C=C(C2=CC=CC=C21)/C=C\3/C4=C(C=CC=N4)NC3=O + Cc1nc(NC(=O)N2CCC[C@H]2C(N)=O)sc1-c1ccnc(C(C)(C)C(F)(F)F)c1 [Alpelisib] (partner 2 µM)
Outline: (§1)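 Relative viability divides the nuclei count in treated wells by that in vehicle wells. Lung cancer cell lines were seeded in 1536-well plates, dosed by pin tool the next day, and fixed and stained after 5 days in one step with final 0.05% Triton X-100, 1% formaldehyde and 1 ug/ml Hoechst. Dosing was a single drug or a fixed anchor-drug dose plus five library-drug doses (not always all listed) in √10 steps, and values are medians of duplicate plates imaged at 4×.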

[2] = compound: CN1C=C(C2=CC=CC=C21)/C=C\3/C4=C(C=CC=N4)NC3=O + CC(=O)Nc1cccc(-n2c(=O)n(C3CC3)c(=O)c3c(Nc4ccc(I)cc4F)n(C)c(=O)c(C)c32)c1 [Trametinib] (partner 0.02 µM)
Outline: as §1

Trametinib + Pictilisib = compound: CC(=O)Nc1cccc(-n2c(=O)n(C3CC3)c(=O)c3c(Nc4ccc(I)cc4F)n(C)c(=O)c(C)c32)c1 [Trametinib] + CS(=O)(=O)N1CCN(Cc2cc3nc(-c4cccc5[nH]ncc45)nc(N4CCOCC4)c3s2)CC1 [Pictilisib] (partner 1 µM)
Outline: as §1

[3] = compound: CN1C=C(C2=CC=CC=C21)/C=C\3/C4=C(C=CC=N4)NC3=O + COc1cc2c(Oc3ccc(NC(=O)C4(C(=O)Nc5ccc(F)cc5)CC4)cc3F)ccnc2cc1OCCCN1CCOCC1 [Foretinib] (partner 0.25 µM)
Outline: as §1

| Cell Line | relative viability ([1]; first compound 0.02 µM) | relative viability ([1]; first compound 0.06325 µM) | relative viability ([1]; first compound 0.2 µM) | relative viability ([1]; first compound 0.6325 µM) | relative viability ([1]; first compound 2 µM) | relative viability ([2]; first compound 0.02 µM) | relative viability ([2]; first compound 0.06325 µM) | relative viability ([2]; first compound 0.2 µM) | relative viability ([2]; first compound 0.6325 µM) | relative viability ([2]; first compound 2 µM) | relative viability (Trametinib + Pictilisib; first compound 0.0025 µM) | relative viability (Trametinib + Pictilisib; first compound 0.007906 µM) | relative viability (Trametinib + Pictilisib; first compound 0.025 µM) | relative viability (Trametinib + Pictilisib; first compound 0.07906 µM) | relative viability (Trametinib + Pictilisib; first compound 0.25 µM) | relative viability ([3]; first compound 0.02 µM) | relative viability ([3]; first compound 0.06325 µM) | relative viability ([3]; first compound 0.2 µM) | relative viability ([3]; first compound 0.6325 µM) | relative viability ([3]; first compound 2 µM) |
| --- | --- | --- | --- | --- | --- | --- | --- | --- | --- | --- | --- | --- | --- | --- | --- | --- | --- | --- | --- | --- |
| NCI-H1993 | 0.631 | 0.653 | 0.678 | 0.736 | 0.698 | 0.517 | 0.5 | 0.589 | 0.342 | 0.507 | 0.864 | 0.913 | 0.792 | 0.806 | 0.897 | 0.665 | 0.739 | 0.72 | 0.788 | 0.688 |
| NCI-H2009 | 1.2 | 1.14 | 1.22 | 1.24 | 1.05 | 0.261 | 0.255 | 0.293 | 0.296 | 0.263 | 0.502 | 0.366 | 0.148 | 0.206 | 0.208 | 1.22 | 1.19 | 1.19 | 1.24 | 1.24 |
| NCI-H2023 | 0.649 | 0.594 | 0.542 | 0.516 | 0.53 | 0.528 | 0.571 | – | 0.378 | 0.43 | 0.213 | 0.141 | 0.137 | 0.175 | 0.143 | 0.841 | 0.837 | – | 0.924 | 0.746 |
| NCI-H2085 | 0.967 | 0.849 | 1.01 | 0.852 | 0.949 | 0.504 | 0.514 | 0.513 | 0.445 | 0.408 | 0.412 | 0.353 | 0.418 | 0.327 | 0.32 | 1.1 | 0.843 | 0.998 | 1.02 | 1.02 |
| NCI-H2087 | 1.16 | 1.21 | 1.17 | 1.05 | 1.22 | 0.149 | 0.208 | 0.153 | 0.189 | 0.215 | 0.846 | 0.344 | 0.26 | 0.237 | 0.382 | 1.05 | 1.11 | 1.3 | 1.04 | 1.04 |
| NCI-H2126 | 0.794 | 0.775 | 0.741 | 0.716 | 0.6 | 0.558 | 0.55 | 0.564 | 0.212 | 0.506 | 0.456 | 0.413 | 0.362 | 0.372 | 0.383 | 1.13 | 1.12 | 1.22 | 0.867 | 1.11 |
| NCI-H2170 | – | 0.794 | 0.757 | 0.617 | 0.649 | 0.915 | 0.949 | 0.917 | 0.954 | 0.875 | 0.281 | 0.276 | – | 0.238 | 0.249 | 1.02 | 1.03 | 1.03 | 0.94 | 1.04 |
| NCI-H2228 | 0.718 | 0.645 | – | 0.919 | 0.674 | 0.379 | 0.464 | 0.24 | 0.285 | 0.566 | 0.281 | 0.232 | 0.184 | 0.171 | 0.199 | 0.95 | 0.764 | – | – | 0.823 |
